In brackets after ≈: the same amount, converted by molar mass.
Target: T1, mushroom tyrosinase
T1 construct: gene PPO3
Test: L-DOPA oxidation, absorbance at […] nm after […] min
Type: biochemical
Settings: 0.1 M L-DOPA solution (300 µL in 610 µL assay), 0.05 M phosphate pH 6.8, room temperature, 10 min preincubation

## C[C@@H]1O[C@@H](OC[C@H]2O[C@@H](Oc3c(-c4ccc(O)c(O)c4)oc4cc(O)cc(O)c4c3=O)[C@H](O)[C@@H](O)[C@@H]2O)[C@H](O)[C@H](O)[C@H]1O [rutin]
  IC50: 5.38 mg/L (≈ 8.81 µM)

From paper PMC11429051, “The Effect of Maturity Stage on Polyphenolic Composition, Antioxidant and Anti-Tyrosinase Activities of Ficus rubiginosa Desf. ex Vent. Extracts” (Antioxidants, 2024)
